pKi: −log10 of the molar value.
Legend:
[1] = biological target: T1, human neutrophil elastase (HNE) (Homo sapiens, UniProt P08246); assay: HNE Ki of CE compounds, tested as described in WO 96/16080; type: biochemical; conditions: read-out: HNE Ki
T1 sequence (P08246 30-267): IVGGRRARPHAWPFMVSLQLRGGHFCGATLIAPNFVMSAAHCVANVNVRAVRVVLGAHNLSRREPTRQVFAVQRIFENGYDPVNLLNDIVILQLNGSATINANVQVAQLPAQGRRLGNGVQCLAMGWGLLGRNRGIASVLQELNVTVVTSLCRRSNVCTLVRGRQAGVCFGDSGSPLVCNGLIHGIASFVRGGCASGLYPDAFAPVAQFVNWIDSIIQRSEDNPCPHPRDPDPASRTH

[2] = tested on: polymorphoneucleocyte (PMN); assay: Extracellular Matrix (ECM) degradation assay; type: cell-based; conditions: PMN's stimulated with opsonized zymosan, 4 hr at 37° C.; for ECM DATA % Inhibition 1 uM / inhibition at 1 µM: 1 uM inhibitor; for ECM DATA % Inhibition 5 uM / inhibition at 5 µM: 5 uM inhibitor
Description: Forty-eight well plates on which extracellular matrix had been established were supplied to Cortech by Dr. Simon's group at the State University of New York at Stony Brook. Briefly, the plates were prepared as follows: R22 rat heart smooth muscle cells were seeded into wells at 2.5×10^4 cells/cm. The cells were fed every 4 days with Eagle's Minimal Essential Media supplemented with fetal bovine serum, tryptose phosphate broth, cefotaxime and streptomycin. At confluence, daily supplements of 50 ug/ml ascorbic acid were added for 8 to 10 days during the synthesis of the ECM layer. [^35S]sulfate and [^3H]proline were also added to the culture media to incorporate radiolabel into the matrix. Cells were later lysed with 25 mM NH4OH. Plates were washed three times with water and once with phosphate-buffered saline containing 0.02% NaN3. Plates were stored at 4° C. until use.
Matrix degradation assays were performed as follows: 0.40 ml of Hanks balance salt solution (HBSS) containing 1 or 5 uM test inhibitor (final concentration; diluted from DMSO stock solution; <2% DMSO final concentration) was added to the wells. After 30 minutes, 50 ul of a polymorphoneucleocyte (PMN) suspension was added resulting in 5×10^5 cells/well. PMN's were stimulated with opsonized zymosan. Zymosan particles were washed and suspended in 0.5 ml human serum for 1 hr at 37° C., vortexing every 15 min. The particles were then washed three times with HBSS and added to wells at a ratio of 10 particles/PMN in a volume of 50 ul. After a 4 hr incubation at 37° C., a 100 ul aliquot of the supernatant was withdrawn for scintillation counting. Following removal of the remaining supernatant, the residual ECM was solubilized with 0.5 ml 2M NaOH. The amount of tritium in this solubilized ECM was accessed by scintillation. ECM degradation data are expressed as (soluble counts released/total ECM counts)—(basal counts released without PMN's/total ECM counts).

Q: What does the source list for `Cc1cccc(Cc2nnc(C(=O)[C@@H](NC(=O)CN3C(=O)NC(c4ccncc4)(N4C(=O)CCC4=O)C3=O)C(C)C)o2)c1` (stereo partly drawn) [CE2206, [4-(R,S)-(4-pyridyl)-4-(R,S)-N-succinimidyl-1-2,5-imidazolidinedione-N-[1-2-[5-(3-methylbenzyl)-1,3,4-oxadiazolyl]carbonyl)-2-(S)-methylpropyl]acetamide]?
A: pKi [1]: 8.06; ECM DATA % Inhibition 1 uM [2]: 47.4%; ECM DATA % Inhibition 5 uM [2]: 62.3%

Q: How did the pKi [1] turn out when “(R,S)-3-Amino-2-oxo-5-methyl-1,4-(2′,3′-methylenedioxy-benzodiazepine)-N-[1-(2-[5-(3-methylbenzyl)-1,3,4-oxadiazolyl]carbonyl)-2-(R,S)-methylpropyl]acetamide [CE2225]” was run?
A: 8.09

Q: And the “ECM DATA % Inhibition 1 uM” value [2]?
A: 30.85%

Q: And the “ECM DATA % Inhibition 5 uM” value [2]?
A: 43.45%

Q: `Cc1cccc(Cc2nnc(C(=O)[C@@H](NC(=O)CN3C(=O)N[C@H](Cc4ccc(O)cc4)C3=O)C(C)C)o2)c1` [CE2255, 4-(R)-(4-Hydroxybenzyl)-2,5-imidazolidinedione-N-[1-(2-[5-(3-methylbenzyl)-1,3,4-oxadiazolyl]carbonyl)-2-(S)-methylpropyl]acetamide] was tested. Which pKi [1] did it give?
A: 7.74

Q: What about the “ECM DATA % Inhibition 1 uM” value [2] of the same compound?
A: 20.7%

Q: What about the “ECM DATA % Inhibition 5 uM” value [2] of the same compound?
A: 42%

Q: Which results are given for `CCCCc1nnc(C(=O)C(NC(=O)CN2C(=O)C(N)N=C(c3ccccn3)c3ccccc32)C(C)C)o1` [CE2218, (R,S)-3-Amino-2-oxo-5-(2-pyridyl)-1,4-benzodiazepine-N-[1-(2-[5-(3-methylpropyl)-1,3,4-oxadiazolyl]carbonyl)-2-(R,S)-methylpropyl]acetamide]?
A: pKi [1]: 8.80; ECM DATA % Inhibition 1 uM [2]: 30.5%; ECM DATA % Inhibition 5 uM [2]: 33.15%

Q: How did the pKi [1] turn out when `COc1ccccc1C1=NCC(=O)N(CC(=O)N[C@H](C(=O)c2nnc(Cc3cccc(C)c3)o2)C(C)C)c2ccccc21` [CE2250, 2-Oxo-5-(2-methoxyphenyl)-1,4-benzodiazepine-N-[1-(2-[5-(3-methylbenzyl)-1,3,4-oxadiazolyl]carbonyl)-2-(S)-methylpropyl]acetamide] was run?
A: 8.16

Q: And the inhibition at 1 µM [2]?
A: 27.4%

Q: What about the inhibition at 5 µM [2] of the same compound?
A: 48.6%

Q: Which results are given for `Cc1cccc(Cc2nnc(C(=O)[C@@H](NC(=O)CN3C(=O)N[C@H](c4ncc[nH]4)C3=O)C(C)C)o2)c1` [CE2257, 4-(R)-(2-Imidazolyl)-2,5-imidazolidinedione-N-[1-(2-[5-(3-methylbenzyl)-1,3,4-oxadiazolyl]carbonyl)-2-(S)-methylpropyl]acetamide]?
A: pKi [1]: 7.52; ECM DATA % Inhibition 1 uM [2]: 48.3%; ECM DATA % Inhibition 5 uM [2]: 61.4%

Q: Which results are given for `Cc1cccc(Cc2nnc(C(=O)[C@@H](NC(=O)CN3C(=O)N[C@@H](Cc4ccccc4)C3=O)C(C)C)o2)c1` [CE2154, 5-(S)-Benzyl-2,4-imidazolidinedione-N-[1-(2-[5-(3-methylbenzyl)-1,3,4-oxadiazolyl]carbonyl)-2-(S)-methylpropyl]acetamide]?
A: pKi [1]: 8.00; inhibition at 1 µM [2]: 54.6%; inhibition at 5 µM [2]: 65.4%

Q: With `Cc1cccc(Cc2nnc(C(=O)[C@@H](NC(=O)Cn3c(-c4ccccn4)nc4ccccc43)C(C)C)o2)c1` [CE2234, 2-(2-Pyridyl)-benzimidazole-N-[1-(2-[5-(3-methylbenzyl)-1,3,4-oxadiazolyl]carbonyl)-2-(S)-methylpropyl]acetamide] as the compound, how does the pKi [1] read?
A: 6.10

Q: And the inhibition at 1 µM [2]?
A: 39.7%

Q: What about the inhibition at 5 µM [2] of the same compound?
A: 35%

Q: What does the source list for `COc1cc2c(cc1OC)N(CC(=O)NC(C(=O)c1nnc(Cc3cccc(C)c3)o1)C(C)C)C(=O)C(N)N=C2C` [CE2235, (R,S)-3-Amino-2-oxo-5-methyl-1,4-(2′,3′-dimethoxybenzodiazepine)-N-[1-(2-[5-(3-methylbenzyl)-1,3,4-oxadiazolyl]carbonyl)-2-(R,S)-methylpropyl]acetamide]?
A: pKi [1]: 8.02; ECM DATA % Inhibition 1 uM [2]: 19.75%; ECM DATA % Inhibition 5 uM [2]: 13.25%

Q: What does the source list for “(R,S)-3-Amino-2-oxo-5-methyl-1,4-(1-thiophenodiazepine)-N-[1-(2-[5-(3-methylbenzyl)-1,3,4-oxadiazolyl]carbonyl)-2-(S)-methylpropyl]acetamide [CE2236]”?
A: pKi [1]: 8.15; ECM DATA % Inhibition 1 uM [2]: 31.9%; ECM DATA % Inhibition 5 uM [2]: 31.75%

Q: `Cc1cccc(Cc2nnc(C(=O)C(NC(=O)CN3C(=O)N(Cc4ccccc4)C(=O)[C@@H]3Cc3ccccc3)C(C)C)o2)c1` (stereo partly drawn) [CE2191, 1-Benzyl-4-(S)-benzyl-2,5-imidazolidinedione-N-[1-(2-[5-(3-methylbenzyl)-1,3,4-oxadiazolyl]carbonyl)-2-(R,S)-methylpropyl]acetamide] was tested. Which pKi [1] did it give?
A: 7.07

Q: What about the “ECM DATA % Inhibition 1 uM” value [2] of the same compound?
A: 29.35%

Q: And the “ECM DATA % Inhibition 5 uM” value [2]?
A: 30.5%

Q: How did the pKi [1] turn out when “(R,S)-3-Amino-2-oxo-5-phenyl-1,4-(2′-chlorobenzodiazepine)-N-[1-(2-[5-(3-methylbenzyl)-1,3,4-oxadiazolyl]carbonyl)-2-(R,S)-methylpropyl]acetamide [CE2223]” was run?
A: 9.03

Q: What about the “ECM DATA % Inhibition 1 uM” value [2] of the same compound?
A: 34.15%

Q: What about the “ECM DATA % Inhibition 5 uM” value [2] of the same compound?
A: 36.15%

Q: `Cc1ccc(C2=NCC(=O)N(CC(=O)N[C@H](C(=O)c3nnc(Cc4cccc(C)c4)o3)C(C)C)c3ccccc32)cc1` [CE2242, 2-Oxo-5-phenyl-1,4-(4′-methylbenzodiazepine)-N-[1-(2-[5-(3-methylbenzyl)-1,3,4-oxadiazolyl]carbonyl)-2-(S)-methylpropyl]acetamide] was tested. Which pKi [1] did it give?
A: 7.57

Q: What about the “ECM DATA % Inhibition 1 uM” value [2] of the same compound?
A: 29.4%

Q: And the “ECM DATA % Inhibition 5 uM” value [2]?
A: 40.7%

Q: How did the pKi [1] turn out when `Cc1cccc(Cc2nnc(C(=O)C(NC(=O)CN3C(=O)C(c4ccccc4)N(CCN4CCOCC4)C3=O)C(C)C)o2)c1` [CE2192, 1-(N-Morpholinoethyl)-5-(R,S)-phenyl-2,4-imidazolidinedione-N-[1-(2-[5-(3-methylbenzyl)-1,3,4-oxadiazolyl]carbonyl)-2-(R,S)-methylpropyl]acetamide] was run?
A: 8.14

Q: What about the inhibition at 1 µM [2] of the same compound?
A: 40.8%

Q: What about the inhibition at 5 µM [2] of the same compound?
A: 49.7%

Q: What does the source list for `Cc1cccc(Cc2nnc(C(=O)[C@@H](NC(=O)CN3C(=O)N(Cc4ccccc4)C(=O)[C@H]3Cc3ccccc3)C(C)C)o2)c1` [CE2151, 1-Benzyl-4-(R)-benzyl-2,5-imidazolidinedione-N-[1-(2-[5-(3-methylbenzyl)-1,3,4-oxadiazolyl]carbonyl)-2-(S)-methylpropyl]acetamide]?
A: pKi [1]: 7.23; inhibition at 1 µM [2]: 14.2%; inhibition at 5 µM [2]: -8.3%

Q: How did the pKi [1] turn out when `Cc1cccc(Cc2nnc(C(=O)C(NC(=O)CN3C(=O)[C@@H](Cc4ccccc4)N(CCN4CCOCC4)C3=O)C(C)C)o2)c1` (stereo partly drawn) [CE2173, 1-(3-Morpholinoethyl)-5-(R)-benzyl-2,4-imidazolidinedione-N-[1-(2-[5-(3-methylbenzyl)-1,3,4-oxadiazolyl]carbonyl)-2-(R,S)-methylpropyl]acetamide] was run?
A: 8.19

Q: What about the “ECM DATA % Inhibition 1 uM” value [2] of the same compound?
A: 35.9%

Q: And the “ECM DATA % Inhibition 5 uM” value [2]?
A: 47.1%

Q: Which results are given for `Cc1cccc(Cc2nnc(C(=O)[C@@H](NC(=O)[C@@H]3CCCN3C(=O)[C@@H](NC(=O)c3cccnc3)C(C)C)C(C)C)o2)c1` [CE2161, (Pyridyl-3-carbonyl)-L-valyl-N-[1-(2-[5-(3-methylbenzyl)-1,3,4-oxadiazolyl]carbonyl)-2-(S)-methylpropyl]-L-prolinamide]?
A: pKi [1]: 10.09; inhibition at 1 µM [2]: 25%; inhibition at 5 µM [2]: 55%

Q: “2-Oxo-5-methyl-1,4-(2-phenyl-1-thiophenodiazepine)-N-[1-(2-[5-(3-methylbenzyl)-1,3,4-oxadiazolyl]carbonyl)-2-(S)-methylpropyl]acetamide [CE2245]” was tested. Which pKi [1] did it give?
A: 7.62

Q: And the “ECM DATA % Inhibition 1 uM” value [2]?
A: 34.7%

Q: What about the “ECM DATA % Inhibition 5 uM” value [2] of the same compound?
A: 39.3%

Reference: US6656911B2, “Serine protease inhibitors” (Cortech, Inc., priority 1994, dated 2003)
